This is an account of results in patent publication US12139454B2, “Dimethylcyclobutanone compounds, dimethylcyclobutane compounds, and processes for preparing the same” (Shin-Etsu Chemical Co., Ltd., priority 2019, dated 2024).

Molecules are shown by their SMILES.

Assay [1] has as its system Planococcus citri. Nature of the assay: Field sticky-trap luring test with lures in a navel orange field. It is filed as in vivo. To be noted: inferred from lures A and C with high contents versus lure B with low contents. The text has this: The mixture of cis-(3-isopropenyl-2,2-dimethylcyclobutyl)methyl acetate, trans-(3-isopropenyl-2,2-dimethylcyclobutyl)methyl acetate, and (3-isopropylidene-2,2-dimethylcyclobutyl)methyl acetate obtained as in Example 35 was separated by 10% silver nitrate silica gel column chromatography (hexane:ethyl acetate=100:1). After the separation, they were mixed in a weight ratio of 100:43:4, 100:5:1, and 100:96:96. The mixtures were loaded each on a rubber cap made of isoprene each in an amount of 200 μg of cis-(3-isopropenyl-2,2-dimethylcyclobutyl)methyl acetate to prepare Lures A, B and C shown in the Table 1 below.
Lures A, B and C and the commercially available lure, Pherodis Planococcus citri (Koppert Biological Systems), were attached each to a sticky. Those and a sticky trap without a lure (blank) were placed in a navel orange field in Port Elizabeth, South Africa. Then, the number of lured and killed adult males of Planococcus citri (generic name: Citrus mealybug) in each trap was counted every other week. Each lure was changed every month.

Assay [2] relates to Planococcus citri. The settings on record: J. Econ. Entomol. 97, 361 (2004); cited from earlier work.

As for `C=C(C)[C@H]1C[C@H](COC(C)=O)C1(C)C` (relative stereo) [trans-(3-isopropenyl-2,2-dimethylcyclobutyl)methyl acetate], the “lure-inhibitory activity (surmised from the lure comparison)” value in the assay on Planococcus citri [1] is “lure-inhibitory activity”. On to `C=C(C)[C@@H]1C[C@H](COC(C)=O)C1(C)C` [(1S,3S)-(3-isopropenyl-2,2-dimethylcyclobutyl) methyl acetate], for which the “sex pheromone activity / effect on the attraction” value in the assay with Planococcus citri [2] is reported as “not a sex pheromone substance, but does not disturb the attraction”.

Take `CC(=O)OCC1CC(=C(C)C)C1(C)C` (stereo not drawn) [(3-isopropylidene-2,2-dimethylcyclobutyl)methyl acetate]: the “lure-inhibitory activity (surmised from the lure comparison)” value in the assay on Planococcus citri [1] is recorded as “lure-inhibitory activity”.
